Laboratory results: the NIST ThermoML archive (doi:10.1021/acs.jced.5b01039)
Values joined by “and” are separate entries in the source; they are usually repeats but may differ in a detail not shown here. Identical values can stand only once. Numbers after ± are expanded uncertainties.

Details: Liquid; for vapor or sublimation pressure: Closed cell (Static) method; for mass density: Pycnometric method

## F/C=C\C(F)(F)F [(Z)-1,3,3,3-tetrafluoro-1-propene]
300 K
  vapor or sublimation pressure: 185.9 ± 0.8 kPa and 186.4 ± 0.8 kPa
  mass density: 1218.6 ± 1 kg/m3 and 1219.2 ± 1 kg/m3
310 K
  vapor or sublimation pressure: 260.4 ± 0.9 kPa and 260.6 ± 0.9 kPa
  mass density: 1191.2 ± 1 kg/m3
320 K
  vapor or sublimation pressure: 355.3 ± 1 kPa and 355.1 ± 1 kPa
  mass density: 1162 ± 1 kg/m3 and 1163.5 ± 1 kg/m3
330 K
  vapor or sublimation pressure: 473.3 ± 1.2 kPa and 473.5 ± 1.2 kPa
  mass density: 1132.5 ± 1 kg/m3 and 1131.5 ± 1 kg/m3
340 K
  vapor or sublimation pressure: 619 ± 1.4 kPa and 619.2 ± 1.4 kPa
  mass density: 1100.2 ± 1 kg/m3 and 1101.7 ± 1 kg/m3
350 K
  vapor or sublimation pressure: 795.2 ± 1.7 kPa and 794.7 ± 1.7 kPa
  mass density: 1066.1 ± 1 kg/m3 and 1067.3 ± 1 kg/m3
360 K
  vapor or sublimation pressure: 1007.3 ± 2 kPa
  mass density: 1032.6 ± 1 kg/m3 and 1032.3 ± 1 kg/m3
370 K
  vapor or sublimation pressure: 1258.9 ± 2.5 kPa and 1258.7 ± 2.5 kPa
  mass density: 993 ± 1 kg/m3 and 993.3 ± 1 kg/m3
380 K
  vapor or sublimation pressure: 1554.1 ± 3 kPa and 1556.9 ± 3 kPa
  mass density: 951.5 ± 1 kg/m3 and 949.7 ± 1 kg/m3
390 K
  vapor or sublimation pressure: 1903.6 ± 3.6 kPa and 1903.7 ± 3.6 kPa
  mass density: 900.5 ± 1.1 kg/m3 and 901.4 ± 1.1 kg/m3
400 K
  vapor or sublimation pressure: 2308.3 ± 4.2 kPa and 2308.8 ± 4.2 kPa
  mass density: 843.9 ± 1.1 kg/m3 and 843.6 ± 1.1 kg/m3

## F/C=C/C(F)(F)F [trans-1,3,3,3-tetrafluoropropene]
300 K
  vapor or sublimation pressure: 526.8 ± 1.4 kPa and 526.6 ± 1.4 kPa
  mass density: 1157.7 ± 1 kg/m3 and 1158 ± 1 kg/m3
310 K
  vapor or sublimation pressure: 703.2 ± 1.6 kPa and 702.4 ± 1.6 kPa
  mass density: 1122.8 ± 1 kg/m3
320 K
  vapor or sublimation pressure: 919.6 ± 2 kPa and 919 ± 2 kPa
  mass density: 1085.1 ± 1 kg/m3
330 K
  vapor or sublimation pressure: 1182.6 ± 2.5 kPa and 1182.3 ± 2.5 kPa
  mass density: 1045.3 ± 1 kg/m3 and 1044.7 ± 1 kg/m3
340 K
  vapor or sublimation pressure: 1498.4 ± 3 kPa and 1498.6 ± 3 kPa
  mass density: 1000.9 ± 1 kg/m3 and 1001.5 ± 1 kg/m3
350 K
  vapor or sublimation pressure: 1874 ± 3.7 kPa and 1874.1 ± 3.7 kPa
  mass density: 950.3 ± 1.1 kg/m3 and 950.6 ± 1.1 kg/m3
360 K
  vapor or sublimation pressure: 2318 ± 4.5 kPa and 2319.2 ± 4.5 kPa
  mass density: 889.8 ± 1.1 kg/m3
370 K
  vapor or sublimation pressure: 2841.4 ± 5.5 kPa and 2842.7 ± 5.5 kPa
  mass density: 810.1 ± 1.3 kg/m3
380 K
  vapor or sublimation pressure: 3460 ± 6.4 kPa and 3461.5 ± 6.4 kPa
  mass density: 668.8 ± 1.5 kg/m3 and 670.4 ± 1.5 kg/m3
